From patent US12509460B2 (Skyhawk Therapeutics, Inc., priority 2019, dated 2025)
Read-outs that look alike come from different tables or passages of the source.

Assays:
[1] = Quantitative splicing assay (HTT), qPCR; assay type: cell-based, human; settings: Homo sapiens, GM04724, 24 h, GM04724 lymphoblasts, read-out: HTT Splicing: E49-50 EC50
Description: Example A9: Quantitative Splicing Assay (HTT)
GM04724 (CAG 70/20) Huntington's disease patient lymphoblasts (Coriell) are plated in 96-well v-bottom plates at 50,000 cells/well. Immediately after plating, cells are dosed with compound for 24 h at concentrations ranging from 2.5 uM to 0.15 nM (0.1% DMSO). Treated cells are lysed and cDNA synthesized using the Fast Advanced Cells-to-Ct kit (Thermofisher A35378) according to the manufacturer's instructions. 2 uL of each cDNA are used in qPCR reactions to confirm the compound-induced inclusion of a cryptic exon within intron 49 of the Huntingtin (HTT) transcripts. The qPCR reactions are prepared in 384-well plates in 10 uL volume, using TagMan™ Fast Advanced Master Mix [ThermoFisher, 4444965] with primers and probes shown in the table below. Reactions are run in a Quant studio 6 qPCR instrument with default settings.

[2] = tested on: mHTT protein in GM04724 (CAG 70/20) Huntington's disease patient lymphoblast cells; test: mHTT protein assay, 2B7-MW1 assay via Mesoscale Discovery (MSD); assay type: cell-based, human
Method in brief: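 Patient lymphoblasts treated 48 h with compound from 10 μM to 0.6 nM. mHTT quantified by MSD 2B7-MW1 immunoassay, whose signal depends on polyQ expansion and HTT size. Viability measured on a replicate plate by CellTiter Glo.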

[3] = tested on: SMN FL and SMN Δ7 in spinal muscular atrophy (SMA) patient fibroblasts (GM03813, Coriell); test: Quantitative splicing assay (SMN), qPCR; assay type: cell-based, human; settings: Homo sapiens, Fibroblast, 24 h, read-out: SMN2 Splicing FL EC50
Description: Spinal muscular atrophy (SMA) patient fibroblasts (GM03813, Coriell) are plated in 96-well plates at 50,000 cells/well. […] Treated cells are lysed and cDNA synthesized using the Fast Advanced Cells-to-Ct kit (Thermofisher A35378) according to the manufacturer's instructions. 2 μL of each cDNA are used in qPCR reactions. […] Reactions are run in a Quant Studio 6 qPCR instrument with default settings.

[4] = tested on: SMN protein in spinal muscular atrophy (SMA) patient fibroblasts (GM03813, Coriell); test: SMN protein assay, Mesoscale Discovery (MSD); assay type: cell-based, human; settings: read-out: SMN2 protein EC50
Method in brief: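 SMA patient fibroblasts (GM03813) seeded at 7000 cells/well and exposed to compound at 2.5 μM to 0.6 nM for 48 hours. Lysates assayed for SMN by MSD immunoassay, with absolute SMN amount calculated from a per-plate SMN standard curve (1 μg/ml to 19.5 pg/ml).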

MDR1 (P-gp) = test: Blood-brain-barrier (BBB) penetration potential via MDCK-MDR1 permeability assay; settings: dog; for Papp A→B at 120 min, 5 μM: MDCK-MDR1, pH 7.4, MDCK-MDR1: Papp A-B; for Papp B→A at 120 min, 5 μM: MDCK-MDR1, pH 7.4, MDCK-MDR1: Papp B-A
[5] = tested on: MDR1-MDCK cell monolayers; test: as above
MDR1 = test: as above; settings: dog, MDCK-MDR1, pH 7.4, MDCK-MDR1: Efflux
[6] = GM04724 Huntington's disease patient lymphoblasts
[7] = SMA patient fibroblasts GM03813, 24 h, qPCR
[8] = SMA patient fibroblasts GM03813, 48 hours, MSD
[9] = GM04724 (CAG 70/20) Huntington's disease patient lymphoblasts
[10] = SMA patient fibroblasts (GM03813)
[11] = SMA patient fibroblasts (GM03813), 48 hours

SMILES	EC50 ([1]; qPCR) [nM]	EC50 [2, 6] [nM]	EC50 [3, 7] [nM]	EC50 [4, 8] [nM]	Papp A→B at 120 min, 5 μM (MDR1 (P-gp); A-B direction) [×10⁻⁶ cm/s]	Papp B→A at 120 min, 5 μM (MDR1 (P-gp); B-A direction) [×10⁻⁶ cm/s]	MDCK-MDR1: % Recov A-B ([5]; A-B direction) [%]	MDCK-MDR1: % Recov B-A ([5]; B-A direction) [%]	efflux ratio at 120 min, 5 μM (MDR1; efflux ratio)	EC50 [1] [nM]	EC50 [2, 9] [nM]	EC50 [3, 10] [nM]	EC50 [4, 11] [nM]	Papp A→B at 120 min, 5 μM (MDR1 (P-gp); A-B) [×10⁻⁶ cm/s]	Papp B→A at 120 min, 5 μM (MDR1 (P-gp); B-A) [×10⁻⁶ cm/s]	MDCK-MDR1: % Recov A-B ([5]; A-B) [%]	MDCK-MDR1: % Recov B-A ([5]; B-A) [%]	efflux ratio at 120 min, 5 μM (MDR1)
Cc1cc(=O)c2cc(-c3ccc(N(C)[C@@H]4C[C@H]5CC[C@H](N5)[C@@H]4F)nn3)c(O)cc2o1 [Compound 50A, 6-(6-(((1S,2S,3R,5R)-2-fluoro-8-azabicyclo[3.2.1]octan-3-yl)(methyl)amino)pyridazin-3-yl)-7-hydroxy-2-methyl-4H-chromen-4-one]	0.01 to 15	0.01 to 15	16 to 50	0.01 to 15	2.16	68.3	85	92	32	–	–	–	–	–	–	–	–	–
Cc1nc2cc(-c3ccc(N(C)[C@H]4C[C@@H]5CC[C@@H](N5)[C@H]4F)nn3)c(O)cc2c(=O)n1C [Compound 114B, 7-(6-(((1R,2R,3S,5S)-2-fluoro-8-azabicyclo[3.2.1]octan-3-yl)(methyl)amino)pyridazin-3-yl)-6-hydroxy-2,3-dimethylquinazolin-4(3H)-one]	–	–	–	–	–	–	–	–	–	0.01 to 15	0.01 to 15	0.01 to 15	0.01 to 15	0.29	43	88	94	150
CN(c1ccc(-c2ccc(-c3cnc(C#N)cn3)cc2O)nn1)[C@H]1C[C@@H]2CCC[C@@H](N2)[C@H]1F [Compound 28B, 5-(4-(6-(((1R,2R,3S,5S)-2-fluoro-9-azabicyclo[3.3.1]nonan-3-yl)(methyl)amino)pyridazin-3-yl)-3-hydroxyphenyl) pyrazine-2-carbonitrile]	0.01 to 15	16 to 50	0.01 to 15	0.01 to 15	1.11	38.9	36	70	35	–	–	–	–	–	–	–	–	–
CCc1cn(-c2ccc(-c3ccc(N(C)[C@@H]4C[C@H]5CC(F)(F)[C@@H](C4)N5)nn3)c(O)c2)cn1 [Compound 18A, 2-(6-(((1S,3R,5R)-6,6-difluoro-8-azabicyclo[3.2.1]octan-3-yl)(methyl)amino)pyridazin-3-yl)-5-(4-ethyl-1H-imidazol-1-yl)phenol]	16 to 50	51 to 100	16 to 50	0.01 to 15	7	40.7	56	71	6	–	–	–	–	–	–	–	–	–
Cc1cnc(-c2ccc(-c3ccc(N(C)[C@@H]4C[C@H]5CCC[C@H](N5)[C@@H]4F)nn3)c(O)c2)o1 [Compound 16A, 2-(6-(((1S,2S,3R,5R)-2-fluoro-9-azabicyclo[3.3.1]nonan-3-yl)(methyl)amino)pyridazin-3-yl)-5-(5-methyloxazol-2-yl)phenol]	16 to 50	16 to 50	101 to 500	101 to 500	2.31	15.2	31	41	7	–	–	–	–	–	–	–	–	–
CN(c1ccc(-c2cc(F)c(-c3ccoc(=O)c3)cc2O)nn1)[C@H]1C[C@@H]2CC[C@@H](N2)[C@H]1F [Compound 17B, 4-(2-fluoro-4-(6-(((1R,2R,3S,5S)-2-fluoro-8-azabicyclo[3.2.1]octan-3-yl)(methyl)amino)pyridazin-3-yl)-5-hydroxyphenyl)-2H-pyran-2-one]	16 to 50	16 to 50	51 to 100	16 to 50	1.91	36.8	62	79	19	–	–	–	–	–	–	–	–	–
CN(c1ccc(-c2cc3oc(C(=O)N4CCC4)cc3cc2O)nn1)[C@H]1C[C@@H]2CC[C@@H](N2)[C@H]1F [Compound 112B, azetidin-1-yl(6-(6-(((1R,2R,3S,5S)-2-fluoro-8-azabicyclo[3.2.1]octan-3-yl)(methyl)amino)pyridazin-3-yl)-5-hydroxybenzofuran-2-yl)methanone]	–	–	–	–	–	–	–	–	–	16 to 50	0.01 to 15	0.01 to 15	0.01 to 15	0.5	47.3	98	81	95
CN(c1ccc(-c2ccc(-n3ccnn3)cc2O)nn1)[C@H]1C[C@@H]2CC[C@@H](N2)[C@H]1F [Compound 61B, 2-(6-(((1R,2R,3S,5S)-2-fluoro-8-azabicyclo[3.2.1]octan-3-yl)(methyl)amino)pyridazin-3-yl)-5-(1H-1,2,3-triazol-1-yl)phenol]	0.01 to 15	0.01 to 15	0.01 to 15	0.01 to 15	3.79	45.8	98	93	12	–	–	–	–	–	–	–	–	–
CN(c1ccc(-c2cc3ncccc3cc2O)nn1)[C@H]1C[C@@H]2CCC[C@@H](N2)[C@H]1F [Compound 78B, 7-(6-(((1R,2R,3S,5S)-2-fluoro-9-azabicyclo[3.3.1]nonan-3-yl)(methyl)amino)pyridazin-3-yl)quinolin-6-ol]	0.01 to 15	0.01 to 15	0.01 to 15	0.01 to 15	4.03	50.3	73	79	12	–	–	–	–	–	–	–	–	–
CN(c1ccc(-c2ccc(-n3ccnn3)cc2O)nn1)[C@@H]1C[C@H]2CCC[C@H](N2)[C@@H]1F [Compound 62A, 2-(6-(((1S,2S,3R,5R)-2-fluoro-9-azabicyclo[3.3.1]nonan-3-yl)(methyl)amino)pyridazin-3-yl)-5-(1H-1,2,3-triazol-1-yl)phenol]	0.01 to 15	0.01 to 15	16 to 50	16 to 50	3.37	61.4	113	109	18	–	–	–	–	–	–	–	–	–
Cc1nc2cc(-c3ccc(N(C)[C@@H]4C[C@H]5CC[C@H](N5)[C@@H]4F)nn3)c(O)cc2c(=O)n1C [Compound 114A, 7-(6-(((1S,2S,3R,5R)-2-fluoro-8-azabicyclo[3.2.1]octan-3-yl)(methyl)amino)pyridazin-3-yl)-6-hydroxy-2,3-dimethylquinazolin-4(3H)-one]	–	–	–	–	–	–	–	–	–	0.01 to 15	0.01 to 15	16 to 50	0.01 to 15	0.28	37.8	102	102	133
CN(c1ccc(-c2cc3ccncc3cc2O)nn1)[C@H]1C[C@@H]2CC[C@@H](N2)[C@H]1F (single isomer, unassigned) [Compound 87B]	0.01 to 15	0.01 to 15	0.01 to 15	0.01 to 15	3.3	28.7	70	88	9	–	–	–	–	–	–	–	–	–
